Source: patent US9113629B2, “4-amino-6-(4-substituted-phenyl)-picolinates and 6-amino-2-(4-substituted-phenyl)-pyrimidine-4-carboxylates and their use as herbicides” (DOW AGROSCIENCES LLC, priority 2013, dated 2015)
Where two headings read alike, the source gives them in different places.

Tested on: test plant species in Direct Seeded Rice
Assay: Postemergence herbicidal activity in direct seeded rice (Table 13)
Assay type: in vivo
Conditions: for GR50 BRAPP / GR80 BRAPP / GR50 CYPSS / GR80 CYPSS / GR50 ECHSS / GR80 ECHSS / GR50 LEFSS / GR80 LEFSS / GR20 ORYSS / GR50 SCPJU / GR80 SCPJU / GR50 SEBEX / GR80 SEBEX: probit analysis; for GR20 ORYSS: ORYSS: Oryza sativa (crop); for pest or weed control at 35 g/ha / pest or weed control at 70 g/ha: post-emergence, 504 h; for pest or weed control at 35 g/ha: 35 g ai/ha; for pest or weed control at 70 g/ha: 70 g ai/ha
Source text: Seeds or nutlets of the desired test plant species were planted in a soil matrix prepared by mixing a loam soil (43 percent silt, 19 percent clay, and 38 percent sand, with a pH of about 8.1 and an organic matter content of about 1.5 percent) and river sand in an 80 to 20 ratio. The soil matrix was contained in plastic pots with a surface area of 139.7 cm^2. When required to ensure good germination and healthy plants, a fungicide treatment and/or other chemical or physical treatment was applied. The plants were grown for 10-17 d in a greenhouse with an approximate 14-h photoperiod which was maintained at about 29° C. during the day and 26° C. during the night. Nutrients and water were added on a regular basis and supplemental lighting was provided with overhead metal halide 1000-Watt lamps as necessary. The plants were employed for testing when they reached the second or third true leaf stage. A weighed amount, determined by the highest rate to be tested, of each test compound was placed in 25 mL glass vials and dissolved in a volume of 97:3 v/v acetone-DMSO to obtain 12× stock solutions. […] The concentrated stock solutions were added to the spray solutions so that the final acetone and DMSO concentrations were 16.2% and 0.5%, respectively. Spray solutions were diluted to the appropriate final concentrations with the addition of 10 mL of an aqueous mixture of 1.5% (v/v) Agri-dex crop oil concentrate. […] Compound requirements are based upon a 12 mL application volume at a rate of 187 L/ha. Formulated compounds were applied to the plant material with an overhead Mandel track sprayer equipped with […] nozzles calibrated to deliver 187 L/ha over an application area of 0.503 square meters (m^2) at a spray height of 18 inches (43 cm) above average plant canopy height. Control plants were sprayed in the same manner with the solvent blank. The treated plants and control plants were placed in a greenhouse as described above and watered by sub-irrigation to prevent wash-off of the test compounds. After 20-22 days, the condition of the test plants, compared with that of the untreated plants, was determined visually and scored on a scale of 0 to 100 percent where 0 corresponds to no injury and 100 corresponds to complete kill. By applying the well-accepted probit analysis as described by J. Berkson in Journal of the American Statistical Society, 48, 565 (1953) and by D. Finney in “Probit Analysis” Cambridge University Press (1952), the above data can be used to calculate GR20, GR50, GR80 and GR90 values, which are defined as growth reduction factors that correspond to the effective dose of herbicide required to kill or control 20 percent, 50 percent, 80 percent or 90 percent, respectively, of a target plant.

[1] = BRAPP: broadleaf signalgrass, Brachiaria platyphylla
[2] = CYPSS: sedge (Cyperus difformis, esculentus, iria)
[3] = ECHSS: barnyardgrass (Echinochloa crus-galli), junglerice (Echinochloa colonum)
[4] = LEFSS: sprangletop (Leptochloa chinensis, Leptochloa dubia)
[5] = SCPJU: Japanese bulrush, Scirpus juncoides
[6] = SEBEX: hemp sesbania, Sesbania exaltata
[7] = BRAPP: broadleaf signalgrass, Brachiaria platyphylla, read-out: Visual Growth Reduction (%) 21 Days After Application BRAPP
[8] = CYPSS: sedge (Cyperus difformis, esculentus, iria), read-out: Visual Growth Reduction (%) 21 Days After Application CYPSS
[9] = ECHSS: barnyardgrass (Echinochloa crus-galli), junglerice (Echinochloa colonum), read-out: Visual Growth Reduction (%) 21 Days After Application ECHSS
[10] = LEFSS: sprangletop (Leptochloa chinensis, Leptochloa dubia), read-out: Visual Growth Reduction (%) 21 Days After Application LEFSS
[11] = ORYSS: Oryza sativa, read-out: Visual Growth Reduction (%) 21 Days After Application ORYSS
[12] = SCPJU: Japanese bulrush, Scirpus juncoides, read-out: Visual Growth Reduction (%) 21 Days After Application SCPJU
[13] = SEBEX: hemp sesbania, Sesbania exaltata, read-out: Visual Growth Reduction (%) 21 Days After Application SEBEX

Row | Structure (SMILES) | GR50 BRAPP [1] | GR80 BRAPP [1] | GR50 CYPSS [2] | GR80 CYPSS [2] | GR50 ECHSS [3] | GR80 ECHSS [3] | GR50 LEFSS [4] | GR80 LEFSS [4] | GR20 ORYSS | GR50 SCPJU [5] | GR80 SCPJU [5] | GR50 SEBEX [6] | GR80 SEBEX [6] | pest or weed control at 35 g/ha [7] | pest or weed control at 70 g/ha [7] | pest or weed control at 35 g/ha [8] | pest or weed control at 70 g/ha [8] | pest or weed control at 35 g/ha [9] | pest or weed control at 70 g/ha [9] | pest or weed control at 35 g/ha [10] | other results
1 | Nc1c(Cl)c(C(=O)O)nc(-c2ccc(C(F)(F)F)c(F)c2)c1Cl [Compound 146] | 8 g ai/ha | 29 g ai/ha | 1 g ai/ha | 1 g ai/ha | 17 g ai/ha | 32 g ai/ha | 44 g ai/ha | 87 g ai/ha | 18 g ai/ha | 1 g ai/ha | 1 g ai/ha | 3 g ai/ha | 4 g ai/ha | 60 to 74% | 95 to 100% | 95 to 100% | 95 to 100% | 85 to 94% | 85 to 94% | 0 to 29% | pest or weed control at 70 g/ha [10]: 75 to 84%; pest or weed control at 35 g/ha [11]: 30 to 44%; pest or weed control at 70 g/ha [11]: 60 to 74%; pest or weed control at 35 g/ha [12]: 95 to 100%; pest or weed control at 70 g/ha [12]: 95 to 100%; pest or weed control at 35 g/ha [13]: 95 to 100%; pest or weed control at 70 g/ha [13]: 95 to 100%
2 | Nc1cc(-c2ccc(Br)cc2F)nc(C(=O)O)c1Cl [Compound 74] | 1 g ai/ha | 5 g ai/ha | 5 g ai/ha | 10 g ai/ha | 1 g ai/ha | 1 g ai/ha | 6 g ai/ha | 13 g ai/ha | 4 g ai/ha | 1 g ai/ha | 1 g ai/ha | 1 g ai/ha | 1 g ai/ha | 95 to 100% | 95 to 100% | 95 to 100% | 95 to 100% | 95 to 100% | 95 to 100% | 95 to 100% | pest or weed control at 70 g/ha [10]: 95 to 100%; pest or weed control at 35 g/ha [11]: 60 to 74%; pest or weed control at 70 g/ha [11]: 60 to 74%; pest or weed control at 35 g/ha [12]: 95 to 100%; pest or weed control at 70 g/ha [12]: 95 to 100%; pest or weed control at 35 g/ha [13]: 95 to 100%; pest or weed control at 70 g/ha [13]: 95 to 100%
3 | Nc1c(Cl)c(C(=O)O)nc(-c2ccc(I)cc2)c1Cl [Compound 173] | 8 g ai/ha | 26 g ai/ha | 2 g ai/ha | 4 g ai/ha | 12 g ai/ha | 33 g ai/ha | 24 g ai/ha | 47 g ai/ha | 16 g ai/ha | 1 g ai/ha | 1 g ai/ha | 1 g ai/ha | 1 g ai/ha | 75 to 84% | 95 to 100% | 95 to 100% | 95 to 100% | 75 to 84% | 95 to 100% | 45 to 59% | pest or weed control at 70 g/ha [10]: 95 to 100%; pest or weed control at 35 g/ha [11]: 45 to 59%; pest or weed control at 70 g/ha [11]: 60 to 74%; pest or weed control at 35 g/ha [12]: 95 to 100%; pest or weed control at 70 g/ha [12]: 95 to 100%; pest or weed control at 35 g/ha [13]: 95 to 100%; pest or weed control at 70 g/ha [13]: 95 to 100%
4 | COC(=O)c1nc(-c2ccc(I)cc2)c(Cl)c(N)c1Cl [Compound 96] | 19 g ai/ha | 58 g ai/ha | 3 g ai/ha | 6 g ai/ha | 29 g ai/ha | 84 g ai/ha | 27 g ai/ha | 58 g ai/ha | 130 g ai/ha | 1 g ai/ha | 1 g ai/ha | 1 g ai/ha | 1 g ai/ha | 60 to 74% | 85 to 94% | 95 to 100% | 95 to 100% | 45 to 59% | 85 to 94% | 85 to 94% | pest or weed control at 70 g/ha [10]: 75 to 84%; pest or weed control at 35 g/ha [11]: 0 to 29%; pest or weed control at 70 g/ha [11]: 0 to 29%; pest or weed control at 35 g/ha [12]: 95 to 100%; pest or weed control at 70 g/ha [12]: 95 to 100%; pest or weed control at 35 g/ha [13]: 95 to 100%; pest or weed control at 70 g/ha [13]: 95 to 100%
5 | COC(=O)c1nc(-c2ccc(Br)cc2F)cc(N)c1Cl [Compound 93] | 1 g ai/ha | 1 g ai/ha | 1 g ai/ha | 2 g ai/ha | 1 g ai/ha | 1 g ai/ha | 6 g ai/ha | 11 g ai/ha | 13 g ai/ha | 1 g ai/ha | 1 g ai/ha | 1 g ai/ha | 1 g ai/ha | 95 to 100% | 95 to 100% | 95 to 100% | 95 to 100% | 95 to 100% | 95 to 100% | 95 to 100% | pest or weed control at 70 g/ha [10]: 95 to 100%; pest or weed control at 35 g/ha [11]: 45 to 59%; pest or weed control at 70 g/ha [11]: 60 to 74%; pest or weed control at 35 g/ha [12]: 95 to 100%; pest or weed control at 70 g/ha [12]: 95 to 100%; pest or weed control at 35 g/ha [13]: 95 to 100%; pest or weed control at 70 g/ha [13]: 95 to 100%
6 | COc1c(N)nc(-c2cc(F)c(Br)cc2F)nc1C(=O)O [Compound 11] | 13 g ai/ha | 44 g ai/ha | 1 g ai/ha | 1 g ai/ha | 11 g ai/ha | 25 g ai/ha | 175 g ai/ha | 463 g ai/ha | 25 g ai/ha | 1 g ai/ha | 1 g ai/ha | 3 g ai/ha | 7 g ai/ha | 60 to 74% | 85 to 94% | 95 to 100% | 95 to 100% | 85 to 94% | 95 to 100% | 0 to 29% | pest or weed control at 70 g/ha [10]: 0 to 29%; pest or weed control at 35 g/ha [11]: 30 to 44%; pest or weed control at 70 g/ha [11]: 45 to 59%; pest or weed control at 35 g/ha [12]: 95 to 100%; pest or weed control at 70 g/ha [12]: 95 to 100%; pest or weed control at 35 g/ha [13]: 95 to 100%; pest or weed control at 70 g/ha [13]: 95 to 100%
